Patent US6413976B1, “Compositions and method for decreasing neuropathic pain” (Trustees of Dartmouth College, priority 1999, dated 2002)

Key:
[1] = system: spinal nerve transection in the rat; assay: Spinal nerve transection model of chronic neuropathic pain, mechanical allodynia (von Frey filaments); type: in vivo; conditions: for mechanical allodynia: L5 spinal nerve transection, dose-dependent
Method: Experiments were performed using a well-established animal model for chronic pain, spinal nerve transection in the rat. The model measures changes in mechanical allodynia, or an increased sensitivity following non-noxious stimulus, such as touch. Rats were injected intraperitdneally one day before and then daily for ten days following nerve transection. […] The effect was dose-dependent, with larger reductions seen with higher doses of the drug.
The same model. was used with rats injected intrathecally with either saline or propentofylline (1 or 3 μg), daily for 10 days. […] The responses were also dose-dependent with the largest reduction seen at the highest dose tested.
Surgery was performed under inhalation anesthesia using halothane in 100% oxygen at 4% and maintained at 2%. Each rat received a single unilateral lesion directed at a left L5 spinal root or spinal nerve. The nerve was identified, freed from adjacent nerves and transected. For sham lesions, a minilaminectomy was performed of the L5 vertebral segment without lesioning. Animals were allowed to recover from anesthesia and were not subjected to any additional surgical procedures or anesthesia until the end of the study when they were euthanized.
Propentofylline was injected intraperitoneally at doses of 1 and 10 mg/kg the day before and for each day of testing (10 days). Saline injections served as a control. Other rats were injected intrathecally at doses of 1 and 3 μg on each day of testing.
Mechanical hypersensitivity was measured as the frequency of foot withdrawals elicited by a defined mechanical stimulus. […]
In blinded testing, rats were subjected to sequential series of 10 tactile stimulations to the plantar surface of the ipsilateral hindpaw using 2 and 12 gauge von Frey filaments (Stoelting Co., WoodDale, Ill.) sequentially. […] Mechanical sensitivity was assessed by recording the total number of responses elicited during three successive trials separated by at least 10 minutes.

[2] = system: humans with neurodegenerative disease; conditions: Alzheimer's Disease and vascular dementia; cited from earlier work
[3] = oral dosing; cited from earlier work

## CCCn1cnc2c1c(=O)n(CCCCC(C)=O)c(=O)n2C [propentofylline, Propentofylline]
[1]; intraperitoneal 1 and 10 mg/kg, one day before and daily for ten days
  mechanical allodynia: significant decrease in mechanical allodynia
[1]; intrathecal 1 or 3 μg daily for 10 days vs saline
  mechanical allodynia: significant decrease in mechanical allodynia
[1]; increasing doses, both central and peripheral routes
  responses to stimulation (foot withdrawals to von Frey filaments): dose-dependent decreases in responses to stimulation
[2]
  safety and efficacy in clinical trials: both safe and effective
[3]
  absorption and metabolism: well absorbed and extensively metabolized
